Series [1] has as its system tre^tc318 mutant embryos. The experiment in a line: Compound rescue screen: restoration of persistent heartbeat in tremblor embryos. In kind it is in vivo, Zebrafish. The note with it: for responders at 10 µM / responders at 15 µM / responders at 20 µM: Danio rerio, 48 h; for responders at 10 µM: read-out: Rescue at 10 uM (%); for responders at 15 µM: read-out: Rescue at 15 uM (%); for responders at 20 µM: read-out: Rescue at 20 uM (%); for Rescue at 10 uM (%): 10 uM from 30 hpf; for Rescue at 10 uM (%) / Rescue at 15 uM (%) / Rescue at 20 uM (%): cardiac function by visual inspection at 2 dpf, 10 embryos per well; for Rescue at 15 uM (%): 15 uM from 30 hpf; for Rescue at 20 uM (%): 20 uM from 30 hpf. The method, then: Zebrafish of the mutant line tremblor (tre^tc318) were maintained and bred as described previously in the literature. C. f. Langenbacher A D, et al., PNAS, 2005, 102(49), 17699-17704.
Exemplary compounds were screened for their ability to partially or completely restore persistent heartbeat in tre^tc318 embryos. 10 tre^tc318 mutant embryos were placed in each well of a 24-well plate and raised in the presence of individual compounds at various concentrations (5, 10, 15 and 20 μM) from 30 hpf. Cardiac function was analyzed by visual inspection at 2 dpf. The hearts of tre^tc318 embryos manifest a chaotic movement resembling cardiac fibrillation with sporadic contractions. Compounds that elicited persistent coordinated cardiac contractions were validated by rescreening at least once on another 10 tre^tc318 mutant embryos.

In series [2] the test system is cardiomyocytes. The experiment in a line: Ca sparks, Ca waves and contractions in cardiomyocytes. In kind it is cell-based.
Series [3] relates to VDAC2. The experiment in a line: Binding of efsevin to VDAC2.
Series [4] in a line: Metabolic stability in vivo.

Each structure is given as a SMILES string.

In the case of `CCOC(=O)C1=CCN(S(=O)(=O)c2ccccc2Cl)C1c1ccc(F)cc1` (stereo not shown) [FS043], the responders at 10 µM in series [1] is 33%.
For `CCOC(=O)C1=CCN(S(=O)(=O)c2cccc(Cl)c2)C1c1ccccc1` (stereo not shown) [FS132], the responders at 15 µM in series [1] is 88%.
For the molecule `CCOC(=O)C1=CCN(S(=O)(=O)c2ccccc2Br)C1c1ccc(C)cc1` (stereo not shown) [FS048], the responders at 10 µM in series [1] was 0%.
As for `CCOC(=O)C1=CCN(S(=O)(=O)c2ccc(Cl)cc2)C1c1cccc(Cl)c1` (stereo not shown) [FS088], the responders at 10 µM in series [1] came to 0%.
Regarding `CCOC(=O)C1=CCN(S(=O)(=O)c2ccc(Br)cc2)C1c1ccc(Cl)c(Cl)c1` (stereo not shown) [FS092], in series [1], the responders at 10 µM stood at 0%, the responders at 15 µM is 11% and the responders at 20 µM is 11%.
For the molecule `CCOC(=O)C1=CCN(S(=O)(=O)c2ccccc2Br)C1c1ccc(F)cc1` (stereo not shown) [FS047], in series [1], the responders at 10 µM is 20%.
In the case of `CCOC(=O)C1=CCN(S(=O)(=O)c2ccc(C)cc2)C1c1ccc(C)cc1` (stereo not shown) [FS057], in series [1], the “Rescue at 10 uM (%)” value was determined as 60%, the “Rescue at 15 uM (%)” value worked out at 70% and the “Rescue at 20 uM (%)” value is reported as 60%.
Consider `CCOC(=O)C1=CCN(S(=O)(=O)c2ccccc2C(=O)OC)C1c1ccc(Cl)cc1` (stereo not shown) [FS073], for which the “Rescue at 10 uM (%)” value in series [1] was determined as 40%.
Regarding `CCOC(=O)C1=CCN(S(=O)(=O)c2ccccc2C)C1c1ccc(Cl)c(Cl)c1` (stereo not shown) [FS019], in series [1], the responders at 10 µM was determined as 30%, the responders at 15 µM was 40% and the responders at 20 µM was determined as 30%.
Take `CCOC(=O)C1=CCN(S(=O)(=O)c2ccccc2F)C1c1cccc(F)c1` (stereo not shown) [FS037]: the responders at 10 µM in series [1] came to 0%.
Still for that read-out and setting: the same measure for `CCOC(=O)C1=CCN(S(=O)(=O)c2ccc(Cl)cc2)C1c1cccc(F)c1` (stereo not shown) [FS090]: 40%.
As to `CCOC(=O)C1=CCN(S(=O)(=O)c2ccccc2F)C1c1ccccc1` (stereo not shown) [FS056], in series [1], the “Rescue at 10 uM (%)” value was 20%, the “Rescue at 15 uM (%)” value worked out at 0% and the “Rescue at 20 uM (%)” value was 0%.
In the case of `CCOC(=O)C1=CCN(S(=O)(=O)c2ccc(C)cc2)C1c1ccc(Cl)c(Cl)c1` (stereo not shown) [FS065], the responders at 10 µM in series [1] came out at 11%.
As for `CCOC(=O)C1=CCN(S(=O)(=O)c2ccccc2)C1c1ccc(Cl)cc1` (stereo not shown) [FS072], in series [1], the “Rescue at 10 uM (%)” value worked out at 60%, the “Rescue at 15 uM (%)” value is 70% and the “Rescue at 20 uM (%)” value amounted to 40%.
Regarding `CCOC(=O)C1=CCN(S(=O)(=O)c2ccccc2C)C1c1ccccc1` (stereo not shown) [FS053], the responders at 10 µM in series [1] stood at 0%.
`CCOC(=O)C1=CCN(S(=O)(=O)c2ccccc2C)C1c1ccc(C)cc1` (stereo not shown) [FS018]: in series [1], the responders at 10 µM turned out to be 0%.
Consider `CCOC(=O)C1=CCN(S(=O)(=O)c2ccc(F)cc2)C1c1cccc(Br)c1` (stereo not shown) [FS115], for which the responders at 15 µM in series [1] was 30%.
`CCOC(=O)C1=CCN(S(=O)(=O)c2ccc(Cl)cc2)C1c1ccc(F)cc1` (stereo not shown) [FS098]: in series [1], the responders at 10 µM came out at 40%, the responders at 15 µM was 44% and the responders at 20 µM turned out to be 89%.
Consider `CCOC(=O)C1=CCN(S(=O)(=O)c2ccc(Br)cc2)C1c1ccc(C)cc1` (stereo not shown) [FS102], for which the responders at 10 µM in series [1] worked out at 0%.
Regarding `CCOC(=O)C1=CCN(S(=O)(=O)c2ccccc2F)C1c1cccc(C)c1` (stereo not shown) [FS038], the responders at 10 µM in series [1] is 25%.
Turning to `CCOC(=O)C1=CCN(S(=O)(=O)c2ccc(Cl)cc2)C1c1cccc(C)c1` (stereo not shown) [FS091], the responders at 10 µM in series [1] amounted to 0%.
Consider `CCOC(=O)C1=CCN(S(=O)(=O)c2cccc(Br)c2)C1c1ccc(Cl)cc1` (stereo not shown) [FS136], for which the responders at 15 µM in series [1] was 29%.
Consider `CCOC(=O)C1=CCN(S(=O)(=O)c2ccc(C)cc2)C1c1ccc(CC)cc1` (stereo not shown) [FS058], for which, in series [1], the responders at 10 µM was 58%, the responders at 15 µM was determined as 80% and the responders at 20 µM was 45%.
`CCOC(=O)C1=CCN(S(=O)(=O)c2ccc(Br)cc2)C1c1ccccc1` (stereo not shown) [FS104]: in series [1], the “Rescue at 10 uM (%)” value is given as 60%, the “Rescue at 15 uM (%)” value is given as 50% and the “Rescue at 20 uM (%)” value came out at 60%.
Regarding `CCOC(=O)C1=CCN(S(=O)(=O)c2ccccc2Cl)C1c1cccc(Br)c1` (stereo not shown) [FS026], the responders at 10 µM in series [1] worked out at 0%.
As for `CCOC(=O)C1=CCN(S(=O)(=O)c2ccc(Br)cc2)C1c1ccc(Br)cc1` (stereo not shown) [FS100], in series [1], the responders at 10 µM turned out to be 0% and the responders at 15 µM came to 33%.
For the molecule `CCOC(=O)C1=CCN(S(=O)(=O)c2ccc(C)cc2)C1c1ccc(C(C)C)cc1` (stereo not shown) [FS070], the “Rescue at 10 uM (%)” value in series [1] was 0%.
For the molecule `CCOC(=O)C1=CCN(S(=O)(=O)c2ccc([N+](=O)[O-])cc2)C1c1ccccc1` (stereo not shown) [FS142], the “Rescue at 15 uM (%)” value in series [1] was determined as 56%.
For the molecule `CCOC(=O)C1=CCN(S(=O)(=O)c2ccc(C)cc2)C1c1ccccc1` (stereo not shown) [FS001, efsevin, reference compound], in series [2], the “effect on Ca overload-induced Ca waves and contractions” value was “inhibits Ca+overload-induced erratic Ca^+ waves and irregular contractions”. Besides, in series [3], the “binding to VDAC2” value is “bind to VDAC2”. Besides, the “metabolic stability in vivo” value in series [4] is on record as “poor metabolic stability in vivo”. Moreover, in series [1], the responders at 10 µM came to 58%, the responders at 15 µM came out at 80% and the responders at 20 µM was determined as 45%. Also, the “activity to restore coordinated contractions in tremblor” value in series [1] (chemical suppressor screen on zebrafish tremblor embryos) was “potent activity to restore coordinated contractions in tremblor”.

The record behind these values is patent US12729181B2, “Compounds, compositions, and methods for modulating calcium ion homeostasis” (The Regents of the University of California, priority 2020, dated 2026).
